Results taken from patent publication US20040208864A1, “Methods of improving health-related quality of life in individuals with systemic lupus erythematosus” (priority 2002, published 2004).
“And” between values parts separate entries of the source, which are not always exact repeats. Equal entries are not always repeated. “Also recorded” adds a separate entry of the source.

Columns and labels:
SLE patients [1] = assay: SF-36 health-related quality of life, Phase II/III (90-05) trial of LJP 394 vs placebo; format: in vivo, human; conditions: for Longitudinal Role Emotional and MCS scores vs placebo: available data only
Method: Patients were excluded if they had evidence of a renal flare within three months of screening; were receiving prednisone or prednisone equivalent >20 mg/day, azathioprine >200 mg/day, methotrexate >25 mg/wk and/or cyclophosphamide at any dose within three months of screening; or a serum creatinine level ≧2.5 mg/dL. The study was conducted in the US and Europe according to Good Clinical Practices and all patients provided voluntary informed consent.
A pharmacodynamic assay has been developed to measure the binding affinity of patients' anti-dsDNA antibodies to LJP 394 (Sem D S, et al. (1999) Arch Biochem Biophys 372:62-8; McNeeley Pa., et al. (2001) Lupus 10:526-532). The assay measures the binding of the total serum immunoglobulin G [IgG] fraction to the dsDNA epitope on LJP 394. Binding of IgG to the LJP 394 epitope is measured using surface plasmon resonance and the concentration required to reach half maximal binding is determined. This concentration defines the apparent Kd′ of the binding interaction and reflects the titer-weighted average affinity of the patient's IgG fraction for the LJP 394 epitope. Using this assay, patients were segregated into “high affinity” and “low affinity” subgroups. The segregation value was selected by comparing the affinity measured before exposure to LJP 394 with that following 16 weekly treatments with LJP 394 100 mg or placebo. The high-affinity (HA) population was defined as those patients with antibody binding affinities [Kd′]≦0.8 mg/mL pre-treatment.
In this double-blind, randomized controlled, multicenter trial, intravenously administered LJP 394 was compared with placebo in SLE patients with prior renal involvement. Patients were randomized to receive LJP 394 100 mg as a 2 ml bolus intravenous injection on a weekly basis or placebo for 76 weeks. After initiation of the trial, the protocol was amended to include 8 week off treatment periods alternating with 12 weekly treatments with 50 mg (1 ml bolus injection) LJP 394 or placebo. The first 16 weeks, when patients received 100 mg LJP 394 or placebo weekly, was considered the ‘induction period’, followed by ‘maintenance,’ when patients alternated 8 off and 12 weeks on treatment. The 20-week cycles were to be repeated three times for a total of 60 weeks.
The primary endpoint was the time to a documented renal flare, defined as reproducible increases from baseline in 24-hr proteinuria or serum creatinine >20% or at least 0.3 mg/dL, whichever was greater, accompanied by proteinuria, hematuria and/or red cell casts; or new onset or reproducible increase in hematuria accompanied by either an increase in 24-hr proteinuria or new red cell casts. Secondary outcome measures included the number of renal flares, time to institution of therapy with high dose corticosteroids (HDCC) and/or cyclophosphamide, incidence of treatment with HDCC and/or cyclophosphamide, and number of major SLE flares. HDCC was defined as an increase in oral, intravenous or intramuscular prednisone (or prednisone equivalent) greater than or equal to 15 mg per day from baseline to a dose greater than 20 mg per day for more than two days or any dose exceeding 200 mg in a single day. Topical, intra-articular, intra-lesional, or intra-ocular corticosteroid administration was excluded.
As a secondary objective, the SF-36 was included in the protocol for analysis, on an exploratory basis, to evaluate and interpret changes in health-related quality of life with active treatment compared with placebo. An additional secondary objective was to evaluate changes in health-related quality of life before and after a documented renal flare, with or without prior treatment with HDCC. The SF-36 was administered at baseline and weeks 16, 24, 36, 44, 56, 64, 76, or at early treatment withdrawal. All patients with a baseline and at least one post treatment health-related quality of life assessment were included in the analyses. […]

anti-dsDNA = conditions: murine models of SLE; cited from earlier work
B cells = conditions: mice; cited from earlier work
SLE patients [2] = assay: Documented renal flares, Phase III study; format: in vivo, human
Method: The primary endpoint was time to renal flare. A renal flare was defined as a significant, reproducible increase in serum creatinine, urine protein or blood in the urine as described in Example 2. The secondary endpoint was time to treatment with HDCC. HDCC was defined as any dose of cyclophosphamide or an increase in prednisone of 15 mg/day or higher resulting in a final dose greater than 20 mg/day.
The incidences of renal flares in patients of both sustained reduction group and the other group were documented and the results are shown in Table 7 for Phase III and Table 8 for Phase II/III.

[3] = High Affinity, no flares, induction phase
[4] = High affinity population, baseline (pre-treatment)
[5] = High affinity population, baseline to Week 16
[6] = ITT population, baseline (pre-treatment)
[7] = ITT population, baseline to Week 16
[8] = ITT, no flares, induction phase
[9] = Phase II/III, before renal flare
[10] = active treatment, pre vs post renal flare
[11] = patients with documented renal flare (n=37), before flare

abetimus sodium (sense GTGTGTGTGTGTGTGTGTGT; antisense CACACACACACACACACACA; sense: DNA, backbone not given here; antisense: DNA, backbone and methylation of C not given here; four deoxynucleotide duplexes bound to triethylene glycol valency platform) [LJP 394, tetravalent conjugate: four (CA)10.(TG)10 double-stranded 20-mer oligonucleotides on a triethylene glycol based valency platform]
Difference in Role Emotional change scores between treatment groups (SLE patients [1]; [3]): 13.2
Difference in Social Functioning change scores between treatment groups (SLE patients [1]; [3]): 5.5
SF-36 MCS Baseline Mean (SLE patients [1]; [4]): 48.21
SF-36 PCS Baseline Mean (SLE patients [1]; [4]): 41.13
Difference between MCS change scores, active vs placebo (SLE patients [1]; [5]): 2.2 points
Difference in Role Emotional change scores, active vs placebo (SLE patients [1]; [5]): 15.9 points
Difference in Role Physical change scores, active vs placebo (SLE patients [1]; [5]): 8.5 points
Difference in Social Functioning change scores, active vs placebo (SLE patients [1]; [5]): 5.0
Magnitude of differences between active and placebo on Role Physical (SLE patients [1]; [5]): 4.4 points
Mean change in SF-36 Social Functioning score (SLE patients [1]; [5]): 4.9 points
SF-36 MCS Mean % Change (SLE patients [1]; [5]): 6.10%
SF-36 MCS Mean Change (SLE patients [1]; [5]): 1.49
SF-36 PCS Mean % Change (SLE patients [1]; [5]): 7.17%
SF-36 PCS Mean Change (SLE patients [1]; [5]): 1.88
Patients reporting improvements in Role Emotional scores greater than the MCID (SLE patients [1]; ITT population, Week 16): 24.2%
Baseline Role Emotional score (SLE patients [1]; [6]): 69.1
SF-36 MCS Baseline Mean (SLE patients [1]; [6]): 48.9 and 48.91
SF-36 PCS Baseline Mean (SLE patients [1]; [6]): 41.0 and 41.03
Difference in MCS change, active vs placebo (SLE patients [1]; [7]): 2.1
Difference in Role Emotional change scores, active vs placebo (SLE patients [1]; [7]): 15.8 points
Difference in Role Physical change scores, active vs placebo (SLE patients [1]; [7]): 8.9 points
SF-36 MCS Mean % Change (SLE patients [1]; [7]): 5.53%
SF-36 MCS Mean Change (SLE patients [1]; [7]): 1.29
SF-36 PCS Mean % Change (SLE patients [1]; [7]): 6.70%
SF-36 PCS Mean Change (SLE patients [1]; [7]): 1.76
Difference in Social Functioning change scores between treatment groups (SLE patients [1]; ITT, induction phase (16 weeks)): 4.7
Difference in Role Emotional change scores between treatment groups (SLE patients [1]; ITT, no HDCC, induction phase): 9.7
Difference in Social Functioning change scores between treatment groups (SLE patients [1]; ITT, no HDCC, induction phase): 5.9
Difference in Role Emotional change scores between treatment groups (SLE patients [1]; [8]): 12.3
Difference in Social Functioning change scores between treatment groups (SLE patients [1]; [8]): 5.0
Mean SF-36 domain scores after renal flare compared with placebo (SLE patients [1]; Phase II/III, after renal flare): remained better than placebo patients; also recorded: higher for LJP394-treated patients in all domains
Mean SF-36 Pain domain score before renal flare (SLE patients [1]; [9]): 60.13
Mean SF-36 domain scores before renal flare compared with placebo (SLE patients [1]; [9]): better scores than placebo in all domains except pain
Mean SF-36 domain scores before renal flare compared with placebo (SLE patients [1]; Phase II/III, before renal flare, listed as LJP394): higher for LJP394-treated patients in all domains except pain
SF-36 domain score changes pre/post renal flare compared with placebo (SLE patients [1]; Phase II/III, pre vs post renal flare): stabilization or improvement in all but one domain
SF-36 domain score changes pre/post renal flare compared with placebo (SLE patients [1]; Phase II/III, pre vs post renal flare, listed as LJP394): all eight domains were more favorable; also recorded: all 8 domains were more favorable
Change in Bodily Pain domain score before to after documented renal flare (SLE patients [1]; [10]): 12.3 points
Change in Role Emotional domain score before to after documented renal flare (SLE patients [1]; [10]): 2.1
Change in Social Functioning domain score before to after documented renal flare (SLE patients [1]; [10]): 2.3
Change in Vitality domain score before to after documented renal flare (SLE patients [1]; [10]): 4.1
Longitudinal Role Emotional and MCS scores vs placebo (SLE patients [1]; after the 16 week induction phase): marked improvement
Longitudinal Role Emotional and MCS scores vs placebo (SLE patients [1]; by week 36 of treatment): comparable between the two groups
Role Emotional scores difference, LJP 394 versus placebo (SLE patients [1]; patients with data pre- and post-renal flares): 20.2 points
Pre-flare difference between treatment groups in MCS summary score (SLE patients [1]; [11]): 4.1 points
Pre-flare difference between treatment groups in Role Emotional score (SLE patients [1]; [11]): 15.0 points
Pre-flare difference between treatment groups in Vitality score (SLE patients [1]; [11]): 9.5 points
Post-flare difference in Role Emotional scores favoring active treatment (SLE patients [1]; patients with documented renal flare, post-flare): 37.7 points
Effect on anti-dsDNA titers (anti-dsDNA): selectively reduces anti-dsDNA titers
Induction of antigen-specific B-cell tolerance (B cells): induce antigen-specific B-cell tolerance
# Renal flares in Other patients (SLE patients [2]): 14
# Renal flares in patients with sustained reduction (SLE patients [2]): 3
